{
  "source": "patent US20240016874A1",
  "about": "“COMPOSITIONS AND METHODS FOR PREVENTING AND TREATING CORONAVIRUSES” (priority 2020, published 2024)",
  "key": {"[1]": {"test_system": "SARS-CoV-2 MLV-PP infecting Expi-293F-ACE2 cells"}, "[2]": {"test_system": "SARS-CoV-2 MLV-PP infecting Expi-293F-ACE2 cells", "test": "microbe, parasite or virus in culture", "conditions": "Severe acute respiratory syndrome coronavirus 2, read-out: IC50 of thymoquinone, SARS-CoV-2-PP infection"}},
  "note": "Like-named read-outs stand apart in the source and are kept apart here.",
  "data": [
    {"smiles": "C[C@@H]1CCO[C@H]2Cn3cc(C(=O)NCc4ccc(F)cc4F)c(=O)c(O)c3C(=O)N12", "note": "[dolutegravir, reference compound]", "values": [
      {"measurement": "inhibition of SARS-CoV-2 MLV-PP", "setting": "[1]", "value": "potent inhibitor"}
    ]},
    {"smiles": "COc1cnc(-n2cnc(C)n2)c2[nH]cc(C(=O)C(=O)N3CCN(C(=O)c4ccccc4)CC3)c12", "note": "[temsavir, reference compound]", "values": [
      {"measurement": "inhibition of SARS-CoV-2 MLV-PP infecting Expi-293F-ACE2 cells", "setting": "[1]", "value": "does not inhibit"}
    ]},
    {"smiles": "CC1=CC(=O)C(C(C)C)=CC1=O", "note": "[thymoquinone]", "values": [
      {"measurement": "IC50", "setting": "[2]", "value": 4.3, "unit": "µM"},
      {"measurement": "block of the viral infection", "setting": "[1]", "value": "block the viral infection"},
      {"measurement": "cell toxicity at high concentrations", "setting": "[1]", "value": "can cause cell death"},
      {"measurement": "concentration that blocks SARS-CoV-2-MLV-PP infection without any cell toxicity", "setting": "[1]", "value": "1 to 10", "unit": "µM"},
      {"measurement": "increased effectiveness on adding black seed oil to thymoquinone", "setting": "[1]", "value": "about 16.0%"},
      {"measurement": "IC50", "setting": "[1]; read-out: IC50 of thymoquinone, SARS-CoV-2-PP infection", "value": 3.6, "unit": "µM"}
    ]}
  ]
}
